# Columns and labels:
# [1] = system: microtubules (MT); assay: MT length image analysis; format: cell-based, human; conditions: 231-MENA^INV cells, 10 nM paclitaxel 24 hours
# [2] = system: MDA-MB-231 cells; assay: Cell viability assay (Prestoblue) in MDA-MB-231 cells expressing GFP, GFP-Mena or GFP-Mena^INV; conditions: 72 h of treatment with Taxol at 100 nM, 1 μm or 10 μM
# Method: Cell viability assays were performed in a 96-well plate. 5,000 cells were plated per well and treated with drug 24 hours later. Cell viability was assayed 72 hours later using the PrestoBlue Cell Viability Reagent (Life Technologies), according to manufacturer's protocol. Fluorescence was measured and normalized to cells exposed to vehicle. The activity area was calculated from doseresponse plots using Matlab. All measurements were repeated in triplicate.
# [3] = system: MDA-MB-231 xenograft tumors; assay: Xenograft tumor growth in NOD-SCID mice with chemotherapy treatment; format: in vivo, mouse; conditions: three doses Taxol/paclitaxel 10 mg/kg or two doses Doxorubicin 5 mg/kg; for growth of control tumors compared to vehicle: GFP (Control) tumors
# Method: Mena or Mena^INV expression blocks Taxol efficacy on tumors in treated animals. Mice with xenograft tumors were generated by injection of MDA-MB-231 cells expressing GFP (Control), GFP-Mena (Mena) or GFP-Mena^INV (Mena^INV) into the mammary fat pads of NOD-SCID mice. […] Tumor size was measured before and after treatment. […] These in vivo findings are consistent with the results obtained in the in vitro data, and indicate that Men/Mena^INV promotes resistance to Taxol as judged by tumor growth.
# Xenograft tumor generation and in vivo chemotherapy treatment. All animal experiments were approved by the MIT Division of Comparative Medicine. 2 million MDA-MB-231 cells expressing different MENA isoforms (in PBS and 20% collagen I) were injected into the 4th right mammary fat pad of six week-old female NOD-SCID mice (Taconic). When the tumors reached 1 cm in diameter, mice were treated every five days with either three doses of paclitaxel at 10 mg/kg in 1% DMSO, 3% PEG (MW 400), 1% Tween 80 in PBS by intra-peritoneal injection. In parallel, mice were treated with only in 1% DMSO, 3% PEG (MW 400), 1% Tween 80 in PBS as a vehicle control. One day after the last injection, tumors were measured and mice were use for intravital imaging and then sacrificed. Their tumors and lungs were fixed in 10% formalin overnight, their bone marrow were collected using PBS and cultured in DMEM with 10% fetal bovine serum. The number of tumor cell colonies in cultured bone morrow was counted 1 month after collection. The number of metastasis in each lobe of the lung were counted from lung H&E stained sections visualized by light microscopy and counted by two blinded individuals. Each tumor group contained 3-5 mice.
# MENA isoform expression is associated with increased tumor growth in vivo during paclitaxel treatment. Whether MENA-associated paclitaxel resistance could also be observed in vivo was examined. Xenograft tumors were generated by injecting MDA-MB-231 cells expressing MENA isoforms into the mammary fat pads of NOD-SCID mice. Mice were treated with paclitaxel once tumors reached 1 cm in diameter (FIG. 30A).
# [4] = system: human breast cancer cell lines; assay: Cell viability (Taxol/paclitaxel efficacy) across a panel of breast cancer cell lines versus endogenous Mena expression; format: cell-based; conditions: 9 breast cancer cell lines, 72 h treatment
# Source text: Endogenous levels of Mena in breast cancer cell lines correlate with their resistance to Taxol treatment. Initial experiments relied on ectopic expression in a single cell line, we examined a panel breast cancer cell lines with differing levels of endogenous Mena expression for sensitivity to Taxol. […] Essentially, low endogenous Mena correlates with low resistance/reduced viability in Taxol treated cells, while high endogenous Mena correlates with high resistance/viability in Taxol treated cells (FIG. 1F).
# Cell viability assay. […] All measurements were repeated in triplicate.
# MENA and MENA^INV are associated with increased survival during paclitaxel treatment in vitro. Whether endogenous MENA and MENA^INV expression levels were associated with paclitaxel resistance was examined. MENA and MENA^INV were determined to be widely expressed in all main breast cancer subtypes, as measured by mRNA from TCGA samples, as well as at the protein level by immunohistochemistry (FIGS. 28A, 28B, 28C), with slightly higher expression in patients with Her2+ breast cancer. […] Under the conditions we used, MENA11a co-migrates with the 80 kDa MENA, thus the intensity of the measured the 80 kDa MENA, detected with an antibody known to recognize all MENA isoforms, represents the total amount of 80 kDa MENA plus MENA11a in the cell lines that express both isoforms. […]
smiles,measurement,setting,value
CC(=O)O[C@H]1C(=O)[C@@]2(C)[C@H]([C@H](OC(=O)c3ccccc3)[C@]3(O)C[C@H](OC(=O)[C@H](O)[C@@H](NC(=O)c4ccccc4)c4ccccc4)C(C)=C1C3(C)C)[C@]1(OC(C)=O)CO[C@@H]1C[C@@H]2O [paclitaxel],MT length,[1],small but significant increase
same,fraction of viable GFP-Mena or GFP-Mena^INV cells higher than fraction of viable GFP (Control) cells,[2],at least 65%
same,growth of control tumors compared to vehicle,[3],significantly decreased the growth of 231-Control tumors
same,growth of control tumors compared to vehicle,[3]; listed as Taxol,significantly decreased growth of control tumors
same,growth / response of Mena or Mena^INV tumors,[3]; Mena or Mena^INV expressing tumors,unaffected
same,correlation between drug efficacy (cell survival) and endogenous Mena expression,[4],significant inverse correlation
same,correlation between drug efficacy (cell survival) and endogenous Mena expression,[4]; listed as Taxol,highly significant anti-correlation
